Data from patent US10555987B2, “GHRH agonists for the treatment of ischemic disorders” (UNIVERSITY OF MIAMI, priority 2012, dated 2020).
Non-standard residues stand in square brackets, D forms with d. Residues, ends and D or L forms follow the SMILES beside them. *: point of attachment. Desaminotyrosyl = O=C(CCc1ccc(O)cc1)*; hArg = N=C(N)NCCCC[C@H](N)C(=O)O; Agmatine = N=C(N)NCCCCN*; Nle = CCCC[C@H](N)C(=O)O; Orn = NCCC[C@H](N)C(=O)O; Abu = CC[C@H](N)C(=O)O; Aoc = NCCCCCCCC(=O)O

Target: T1, GHRH receptor (Homo sapiens, UniProt Q02643)
T1 sequence (Q02643 23-423): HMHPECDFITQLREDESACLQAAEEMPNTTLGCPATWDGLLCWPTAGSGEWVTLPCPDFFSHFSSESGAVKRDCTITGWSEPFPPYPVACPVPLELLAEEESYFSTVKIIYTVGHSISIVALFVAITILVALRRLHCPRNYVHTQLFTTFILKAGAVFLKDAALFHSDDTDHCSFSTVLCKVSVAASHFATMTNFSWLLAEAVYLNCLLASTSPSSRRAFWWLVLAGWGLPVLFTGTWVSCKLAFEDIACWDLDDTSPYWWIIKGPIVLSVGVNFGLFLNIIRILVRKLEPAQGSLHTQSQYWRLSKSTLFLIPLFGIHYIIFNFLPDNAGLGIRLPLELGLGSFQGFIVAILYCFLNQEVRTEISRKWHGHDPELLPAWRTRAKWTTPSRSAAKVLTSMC
Assay: GHRH receptor binding, competition with 125I-labeled [His1,Nle27]hGHRH(1-32)NH2, human pituitary membrane homogenates (Table 6)
Design: Normal human pituitaries were purchased from the National Hormone and Peptide Program; tissue National Hormone and Peptide Program (A.F. Parlow, Harbor-UCLA Medical Center, Torrance, Calif.); host or cells: normal human pituitary, membrane fraction
Conditions: for Relative affinity (Binding potency) vs GHRH: GHRH(1-29) = 1, Table 6; for Relative affinity (Binding potency) vs JI-38: JI-38 = 1, Table 6
Excerpt: Normal human pituitaries were purchased from the National Hormone and Peptide Program (A.F. Parlow, Los Angeles, County Harbor-UCLA Medical Center, Torrance, Calif.).

Structure (SMILES) | Relative affinity (Binding potency) vs GHRH | Relative affinity (Binding potency) vs JI-38
CCCC[C@H](NC(=O)[C@@H](NC(=O)[C@H](CC(=O)O)NC(=O)[C@H](CCC(N)=O)NC(=O)[C@H](CC(C)C)NC(=O)[C@H](CC(C)C)NC(=O)[C@H](CCCN)NC(=O)[C@H](CCCNC(=N)N)NC(=O)[C@H](C)NC(=O)[C@H](CO)NC(=O)[C@H](CC(C)C)NC(=O)[C@H](CCC(N)=O)NC(=O)[C@H](CC)NC(=O)[C@H](CC(C)C)NC(=O)[C@@H](NC(=O)[C@H](CCCN)NC(=O)[C@H](CCCNC(=N)N)NC(=O)[C@H](Cc1ccc(O)cc1)NC(=O)[C@H](CO)NC(=O)[C@H](C)NC(=O)[C@@H](NC(=O)[C@H](Cc1ccccc1)NC(=O)[C@@H](NC(=O)[C@H](C)NC(=O)[C@H](CC(=O)O)NC(=O)[C@@H](C)NC(=O)CCc1ccc(O)cc1)[C@@H](C)CC)[C@@H](C)O)C(C)C)[C@@H](C)CC)C(=O)N[C@@H](CC(=O)O)C(=O)N[C@@H](CCCNC(=N)N)C(=O)N[C@@H](CCCCNC(=N)N)C(N)=O [Peptide P-23256, [Dat^1, D-Ala^2, Ala^8, Orn^12, Abu^15, Orn^21, Nle^27, Asp^28, Har^30]hGHRH(1-30)NH2] (Desaminotyrosyl-[dA]DAIFTASYR[Orn]VL[Abu]QLSAR[Orn]LLQDI[Nle]DR[hArg]-NH2) | 148.0 | 48.7
CCCC[C@H](NC(=O)[C@@H](NC(=O)[C@H](CC(=O)O)NC(=O)[C@H](CCC(N)=O)NC(=O)[C@H](CC(C)C)NC(=O)[C@H](CC(C)C)NC(=O)[C@H](CCCN)NC(=O)[C@H](CCCNC(=N)N)NC(=O)[C@H](C)NC(=O)[C@H](CO)NC(=O)[C@H](CC(C)C)NC(=O)[C@H](CCC(N)=O)NC(=O)[C@H](CC)NC(=O)[C@H](CC(C)C)NC(=O)[C@@H](NC(=O)[C@H](CCCN)NC(=O)[C@H](CCCNC(=N)N)NC(=O)[C@H](Cc1ccc(O)cc1)NC(=O)[C@H](CO)NC(=O)[C@H](CC(N)=O)NC(=O)[C@@H](NC(=O)[C@H](Cc1ccccc1)NC(=O)[C@@H](NC(=O)[C@H](C)NC(=O)[C@H](CC(=O)O)NC(=O)[C@H](C)NC(=O)CCc1ccc(O)cc1)[C@@H](C)CC)[C@@H](C)O)C(C)C)[C@@H](C)CC)C(=O)N[C@@H](CC(=O)O)C(=O)NCCCCNC(=N)N [JI-34, reference compound] (Desaminotyrosyl-ADAIFTNSYR[Orn]VL[Abu]QLSAR[Orn]LLQDI[Nle]D-Agmatine; N-terminus and C-terminus assumed) | 4.32 | 
CCCC[C@H](NC(=O)[C@@H](NC(=O)[C@H](CC(=O)O)NC(=O)[C@H](CCC(N)=O)NC(=O)[C@H](CC(C)C)NC(=O)[C@H](CC(C)C)NC(=O)[C@H](CCCN)NC(=O)[C@H](CCCNC(=N)N)NC(=O)[C@H](C)NC(=O)[C@H](CO)NC(=O)[C@H](CC(C)C)NC(=O)[C@H](CCC(N)=O)NC(=O)[C@H](CC)NC(=O)[C@H](CC(C)C)NC(=O)[C@@H](NC(=O)[C@H](CCCN)NC(=O)[C@H](CCCNC(=N)N)NC(=O)[C@H](Cc1ccc(O)cc1)NC(=O)[C@H](CO)NC(=O)[C@H](CCC(N)=O)NC(=O)[C@@H](NC(=O)[C@H](Cc1ccccc1)NC(=O)[C@@H](NC(=O)[C@H](C)NC(=O)[C@H](CC(=O)O)NC(=O)[C@@H](C)NC(=O)CCc1ccc(O)cc1)[C@@H](C)CC)[C@@H](C)O)C(C)C)[C@@H](C)CC)C(=O)N[C@@H](CC(=O)O)C(=O)N[C@@H](CCCNC(=N)N)C(=O)NCCCCCCCC(N)=O [Peptide P-21304, [Dat^1, D-Ala^2, Gln^8, Orn^12, Abu^15, Orn^21, Nle^27, Asp^28, Amc^30]hGHRH(1-30)NH2] (Desaminotyrosyl-[dA]DAIFTQSYR[Orn]VL[Abu]QLSAR[Orn]LLQDI[Nle]DR[Aoc]-NH2) | 74.0 | 24.4
